From US11566057B2, “Long-acting co-agonists of the glucagon and GLP-1 receptors” (Merck Sharp & Dohme Corp., priority 2017, dated 2023)
Like-named read-outs stand apart in the source and are kept apart here. Numbered stars: 1 amine (or outer) side, 2 acyl side, 3 side chain; on linkers, the order of the positions; unused ones are H or OH. Square brackets hold non-standard residues; d marks the D form. Side chains are listed from the residue outwards. Peptide text beside a SMILES is read from it. * marks the point of attachment. C20 diacid = O=C(O)CCCCCCCCCCCCCCCCCCC(=O)*; Phe(4-CH2NH2) = NCc1ccc(C[C@H](N)C(=O)O)cc1; C18 diacid = O=C(O)CCCCCCCCCCCCCCCCC(=O)*; C16 diacid = O=C(O)CCCCCCCCCCCCCCC(=O)*; γGlu = O=C(O)[C@H](CCC(=O)[*:2])N[*:1]; Met(O2) = CS(=O)(=O)CC[C@H](N)C(=O)O; αMeD = C[C@](N)(CC(=O)O)C(=O)O; αMeS = C[C@](N)(CO)C(=O)O; AEEA = NCCOCCOCC(=O)O; Aib = CC(C)(N)C(=O)O

Assays:
[1] = molecular target: T1, human GCGR (Homo sapiens, UniProt P47871); assay: cAMP activity assay at the Glucagon receptor (GCGR); format: cell-based; details: for hGCGR/hGLP1R (hTone): ratio of GCGR EC50 to GLP1R EC50
T1 construct: expressed in transfected cells; growth medium holds Blasticidin and Hygromycin
Procedure, shortened: (§1)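 Peptides serially diluted from DMSO (10 points) and added to frozen-stock cells bearing human GLP1R (10,000 cells/well) or GCGR (30,000 cells/well), 1 h at RT, dark. EC50 by four-parameter logistic fit of HitHunter cAMPXS luminescence, read following overnight RT incubation.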

[2] = molecular target: T2, human GLP1R (Homo sapiens, UniProt P43220); assay: cAMP activity assay at the GLP-1 receptor (GLP1R); format: cell-based; details: summary statement: EC50 at each of the glucagon and GLP-1 receptors; read-out: EC50 at the GLP-1 receptor
T2 construct: expressed in transfected cells; growth medium holds Blasticidin and Hygromycin
Procedure, shortened: as §1

[3] = cells expressing human GCGR, cAMP production, buffer with or without 20% human serum (not stated which), read-out: GCGR EC50 human
[4] = summary statement: EC50 at each of the glucagon and GLP-1 receptors, read-out: EC50 at the glucagon receptor

T2 sequence (P43220 24-463): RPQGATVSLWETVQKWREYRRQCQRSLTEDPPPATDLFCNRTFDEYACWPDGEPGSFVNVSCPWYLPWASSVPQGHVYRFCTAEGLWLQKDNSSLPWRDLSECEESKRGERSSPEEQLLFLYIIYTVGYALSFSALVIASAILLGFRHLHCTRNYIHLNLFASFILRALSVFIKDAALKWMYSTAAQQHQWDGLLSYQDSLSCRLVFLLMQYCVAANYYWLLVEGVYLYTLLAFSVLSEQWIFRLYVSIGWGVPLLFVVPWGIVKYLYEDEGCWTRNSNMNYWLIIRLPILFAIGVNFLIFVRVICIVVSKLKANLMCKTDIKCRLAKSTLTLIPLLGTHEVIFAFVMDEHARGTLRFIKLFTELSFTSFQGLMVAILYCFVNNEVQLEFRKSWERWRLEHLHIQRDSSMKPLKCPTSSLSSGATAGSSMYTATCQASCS
T1 sequence (P47871 26-477): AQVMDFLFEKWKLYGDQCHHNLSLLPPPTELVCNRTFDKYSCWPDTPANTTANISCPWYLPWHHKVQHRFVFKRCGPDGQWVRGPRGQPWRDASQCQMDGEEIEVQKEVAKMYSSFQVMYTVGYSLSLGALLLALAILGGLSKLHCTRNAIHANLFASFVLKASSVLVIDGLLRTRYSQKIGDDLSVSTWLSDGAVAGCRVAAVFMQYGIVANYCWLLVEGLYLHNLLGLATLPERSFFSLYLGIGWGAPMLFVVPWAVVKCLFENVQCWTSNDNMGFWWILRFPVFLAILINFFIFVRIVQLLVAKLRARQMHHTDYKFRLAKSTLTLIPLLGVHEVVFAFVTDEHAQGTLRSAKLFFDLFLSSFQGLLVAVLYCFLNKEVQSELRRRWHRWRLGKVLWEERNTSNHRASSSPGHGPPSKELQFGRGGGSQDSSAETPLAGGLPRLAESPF

Compound | EC50 [1, 3] [nM] | hGCGR/hGLP1R (hTone) [1] | EC50 [1, 4] [nM] | EC50 [2] [nM]
CC(C)C[C@H](NC(=O)[C@H](Cc1ccc(O)cc1)NC(=O)[C@H](CCCCN)NC(=O)[C@H](CO)NC(=O)[C@H](Cc1ccc(O)cc1)NC(=O)[C@H](CC(=O)O)NC(=O)[C@H](CO)NC(=O)[C@@H](NC(=O)[C@H](Cc1ccccc1)NC(=O)[C@@H](NC(=O)CNC(=O)[C@H](CCC(N)=O)NC(=O)[C@](C)(CO)NC(=O)[C@@H](N)Cc1c[nH]cn1)[C@@H](C)O)[C@@H](C)O)C(=O)N[C@@H](CC(=O)O)C(=O)NC(C)(C)C(=O)N[C@@H](CCCNC(=N)N)C(=O)N[C@@H](C)C(=O)N[C@@H](C)C(=O)N[C@@H](CCC(N)=O)C(=O)N[C@@H](CCCCNC(=O)COCCOCCNC(=O)COCCOCCNC(=O)CC[C@H](NC(=O)CCCCCCCCCCCCCCCCC(=O)O)C(=O)O)C(=O)N[C@@H](Cc1ccccc1)C(=O)N[C@H](C(=O)N[C@@H](CCC(N)=O)C(=O)N[C@@H](Cc1c[nH]c2ccccc12)C(=O)N[C@@H](CC(C)C)C(=O)N[C@@H](CCS(C)(=O)=O)C(=O)N[C@@](C)(CC(=O)O)C(=O)N[C@H](C(N)=O)[C@@H](C)O)C(C)C [TP621] (H-H[αMeS]QGTFTSDYSKYLD[Aib]RAAQK([AEEA-AEEA-γGlu-C18 diacid])FVQWL[Met(O2)][αMeD]T-NH2) | 0.25 | 0.1 | < 5 | < 5
CC(C)C[C@H](NC(=O)[C@H](Cc1ccc(O)cc1)NC(=O)[C@H](CCCCN)NC(=O)[C@H](CO)NC(=O)[C@H](Cc1ccc(O)cc1)NC(=O)[C@H](CC(=O)O)NC(=O)[C@H](CO)NC(=O)[C@@H](NC(=O)[C@H](Cc1ccccc1)NC(=O)[C@@H](NC(=O)CNC(=O)[C@H](CCC(N)=O)NC(=O)C(C)(C)NC(=O)[C@@H](N)Cc1c[nH]cn1)[C@@H](C)O)[C@@H](C)O)C(=O)N[C@@H](CC(=O)O)C(=O)N[C@@H](C)C(=O)N[C@@H](CCCNC(=N)N)C(=O)N[C@@H](C)C(=O)N[C@@H](C)C(=O)N[C@@H](CCCCNC(=O)COCCOCCNC(=O)COCCOCCNC(=O)CC[C@H](NC(=O)CCCCCCCCCCCCCCCCC(=O)O)C(=O)O)C(=O)N[C@@H](CC(=O)O)C(=O)N[C@@H](Cc1ccccc1)C(=O)N[C@H](C(=O)N[C@@H](CCC(N)=O)C(=O)N[C@@H](Cc1c[nH]c2ccccc12)C(=O)N[C@@H](CC(C)C)C(=O)N[C@@H](CCS(C)(=O)=O)C(=O)N[C@@H](CCC(N)=O)C(=O)N[C@H](C(N)=O)[C@@H](C)O)C(C)C [TP600] (H-H[Aib]QGTFTSDYSKYLDARAAK([AEEA-AEEA-γGlu-C18 diacid])DFVQWL[Met(O2)]QT-NH2; N-terminus assumed) | – | 3.1 | < 5 | < 5
CC(C)C[C@H](NC(=O)[C@H](Cc1ccc(O)cc1)NC(=O)[C@H](CCCCN)NC(=O)[C@H](CO)NC(=O)[C@H](Cc1ccc(O)cc1)NC(=O)[C@H](CC(=O)O)NC(=O)[C@H](CO)NC(=O)[C@@H](NC(=O)[C@H](Cc1ccccc1)NC(=O)[C@@H](NC(=O)CNC(=O)[C@H](CCC(N)=O)NC(=O)[C@](C)(CO)NC(=O)[C@@H](N)Cc1c[nH]cn1)[C@@H](C)O)[C@@H](C)O)C(=O)N[C@@H](CC(=O)O)C(=O)N[C@@H](C)C(=O)N[C@@H](CCCNC(=N)N)C(=O)N[C@@H](C)C(=O)N[C@@H](C)C(=O)N[C@@H](CCCCNC(=O)COCCOCCNC(=O)COCCOCCNC(=O)CC[C@H](NC(=O)CCCCCCCCCCCCCCC(=O)O)C(=O)O)C(=O)N[C@@H](CC(=O)O)C(=O)N[C@@H](Cc1ccccc1)C(=O)N[C@H](C(=O)N[C@@H](CCC(N)=O)C(=O)N[C@@H](Cc1c[nH]c2ccccc12)C(=O)N[C@@H](CC(C)C)C(=O)N[C@@H](CCS(C)(=O)=O)C(=O)N[C@@](C)(CC(=O)O)C(=O)N[C@H](C(N)=O)[C@@H](C)O)C(C)C [TP614] (H-H[αMeS]QGTFTSDYSKYLDARAAK([AEEA-AEEA-γGlu-C16 diacid])DFVQWL[Met(O2)][αMeD]T-NH2; N-terminus assumed) | 0.86 | 0.6 | < 5 | < 5
CC(C)C[C@H](NC(=O)[C@H](Cc1ccc(O)cc1)NC(=O)[C@H](CCCCN)NC(=O)[C@H](CO)NC(=O)[C@H](Cc1ccc(O)cc1)NC(=O)[C@H](CC(=O)O)NC(=O)[C@H](CO)NC(=O)[C@@H](NC(=O)[C@H](Cc1ccccc1)NC(=O)[C@@H](NC(=O)CNC(=O)[C@H](CCC(N)=O)NC(=O)[C@](C)(CO)NC(=O)[C@@H](N)Cc1c[nH]cn1)[C@@H](C)O)[C@@H](C)O)C(=O)N[C@@H](CC(=O)O)C(=O)NC(C)(C)C(=O)N[C@@H](CCCNC(=N)N)C(=O)N[C@@H](C)C(=O)N[C@@H](C)C(=O)N[C@@H](CCCCNC(=O)COCCOCCNC(=O)COCCOCCNC(=O)CC[C@H](NC(=O)CCCCCCCCCCCCCCCCC(=O)O)C(=O)O)C(=O)N[C@@H](CC(=O)O)C(=O)N[C@@H](Cc1ccccc1)C(=O)N[C@H](C(=O)N[C@@H](CCC(N)=O)C(=O)N[C@@H](Cc1c[nH]c2ccccc12)C(=O)N[C@@H](CC(C)C)C(=O)N[C@@H](CCS(C)(=O)=O)C(=O)N[C@@](C)(CC(=O)O)C(=O)N[C@H](C(N)=O)[C@@H](C)O)C(C)C [TP620] (H-H[αMeS]QGTFTSDYSKYLD[Aib]RAAK([AEEA-AEEA-γGlu-C18 diacid])DFVQWL[Met(O2)][αMeD]T-NH2; N-terminus assumed) | – | 0.1 | < 5 | < 5

Continued, values first:

EC50 [1, 3] [nM] | hGCGR/hGLP1R (hTone) [1] | EC50 [1, 4] [nM] | EC50 [2] [nM] | Compound
0.46 | 0.2 | < 5 | < 5 | CC(C)C[C@H](NC(=O)[C@H](Cc1ccc(O)cc1)NC(=O)[C@H](CCCCN)NC(=O)[C@H](CO)NC(=O)[C@H](Cc1ccc(O)cc1)NC(=O)[C@H](CC(=O)O)NC(=O)[C@H](CO)NC(=O)[C@@H](NC(=O)[C@H](Cc1ccccc1)NC(=O)[C@@H](NC(=O)CNC(=O)[C@H](CCC(N)=O)NC(=O)C(C)(C)NC(=O)[C@@H](N)Cc1c[nH]cn1)[C@@H](C)O)[C@@H](C)O)C(=O)N[C@@H](CC(=O)O)C(=O)N[C@@H](C)C(=O)N[C@@H](CCCNC(=N)N)C(=O)N[C@@H](C)C(=O)N[C@@H](C)C(=O)N[C@@H](Cc1ccc(CNC(=O)COCCOCCNC(=O)CC[C@H](NC(=O)CCCCCCCCCCCCCCCCC(=O)O)C(=O)O)cc1)C(=O)N[C@@H](CC(=O)O)C(=O)N[C@@H](Cc1ccccc1)C(=O)N[C@H](C(=O)N[C@@H](CCC(N)=O)C(=O)N[C@@H](Cc1c[nH]c2ccccc12)C(=O)N[C@@H](CC(C)C)C(=O)N[C@@H](CC(C)C)C(=O)N[C@@H](CC(=O)O)C(=O)N[C@H](C(N)=O)[C@@H](C)O)C(C)C [TP635] (H-H[Aib]QGTFTSDYSKYLDARAA[Phe(4-CH2NH2)]([AEEA-γGlu-C18 diacid])DFVQWLLDT-NH2)
1.09 | 2.4 | < 5 | < 5 | CC(C)C[C@H](NC(=O)[C@H](Cc1ccc(O)cc1)NC(=O)[C@H](CCCCN)NC(=O)[C@H](CO)NC(=O)[C@H](Cc1ccc(CNC(=O)COCCOCCNC(=O)COCCOCCNC(=O)CC[C@H](NC(=O)CCCCCCCCCCCCCCCCCCC(=O)O)C(=O)O)cc1)NC(=O)[C@H](CC(=O)O)NC(=O)[C@H](CO)NC(=O)[C@@H](NC(=O)[C@H](Cc1ccccc1)NC(=O)[C@@H](NC(=O)CNC(=O)[C@H](CCC(N)=O)NC(=O)C(C)(C)NC(=O)[C@@H](N)Cc1c[nH]cn1)[C@@H](C)O)[C@@H](C)O)C(=O)N[C@@H](CC(=O)O)C(=O)N[C@@H](C)C(=O)N[C@@H](CCCNC(=N)N)C(=O)N[C@@H](C)C(=O)N[C@@H](C)C(=O)N[C@@H](CCC(N)=O)C(=O)N[C@@H](CC(=O)O)C(=O)N[C@@H](Cc1ccccc1)C(=O)N[C@H](C(=O)N[C@@H](CCC(N)=O)C(=O)N[C@@H](Cc1c[nH]c2ccccc12)C(=O)N[C@@H](CC(C)C)C(=O)N[C@@H](CCS(C)(=O)=O)C(=O)N[C@@H](CC(=O)O)C(=O)N[C@H](C(N)=O)[C@@H](C)O)C(C)C [TP580] (H-H[Aib]QGTFTSD[Phe(4-CH2NH2)]([AEEA-AEEA-γGlu-C20 diacid])SKYLDARAAQDFVQWL[Met(O2)]DT-NH2; N-terminus assumed)
– | 0.6 | < 5 | < 5 | CC(C)C[C@H](NC(=O)[C@H](Cc1ccc(O)cc1)NC(=O)[C@H](CCCCN)NC(=O)[C@H](CO)NC(=O)[C@H](Cc1ccc(O)cc1)NC(=O)[C@H](CC(=O)O)NC(=O)[C@H](CO)NC(=O)[C@@H](NC(=O)[C@H](Cc1ccccc1)NC(=O)[C@@H](NC(=O)CNC(=O)[C@H](CCC(N)=O)NC(=O)C(C)(C)NC(=O)[C@@H](N)Cc1c[nH]cn1)[C@@H](C)O)[C@@H](C)O)C(=O)N[C@@H](CC(=O)O)C(=O)N[C@@H](C)C(=O)N[C@@H](CCCNC(=N)N)C(=O)N[C@@H](C)C(=O)N[C@@H](C)C(=O)N[C@@H](CCCCNC(=O)COCCOCCNC(=O)CC[C@H](NC(=O)CCCCCCCCCCCCCCCCC(=O)O)C(=O)O)C(=O)N[C@@H](CC(=O)O)C(=O)N[C@@H](Cc1ccccc1)C(=O)N[C@H](C(=O)N[C@@H](CCC(N)=O)C(=O)N[C@@H](Cc1c[nH]c2ccccc12)C(=O)N[C@@H](CC(C)C)C(=O)N[C@@H](CCS(C)(=O)=O)C(=O)N[C@@H](CC(=O)O)C(=O)N[C@H](C(N)=O)[C@@H](C)O)C(C)C [TP626] (H-H[Aib]QGTFTSDYSKYLDARAAK([AEEA-γGlu-C18 diacid])DFVQWL[Met(O2)]DT-NH2; N-terminus assumed)
